Reference: patent US20080200404A1, “Novel Antimalarial 9A-Carbamoyl-Aminoalkyl and 9A-Thiocarbamoyl-Aminoalkyl Azalides” (priority 2005, published 2008)
≈ marks a conversion by molar mass, not a printed value.

What was measured:
[1] = tested on: Plasmodium falciparum TM91C235; test: In vitro antimalarial [3H]-hypoxanthine incorporation assay, TM91C235; type: cell-based; settings: Plasmodium falciparum; P. falciparum TM91C235 (multiple drug resistant isolate), 72 hours exposure
From the text: (§1) The in vitro screens for intrinsic antimalarial activity were based on modifications of the procedures described by Desjardins R E, Canfield C J, Haynes J D, Chulay J D. (Quantitative assessment of antimalarial activity in vitro by a semiautomated microdilution technique. Antimicrob Agents Chemother. 1979 December; 16(6):710-8.), Chulay J D, Haynes J D, Diggs C L. (Plasmodium falciparum: Assessment of in vitro growth by [3H]hypoxanthine incorporation. Exp. Parasitol. 1983 55:138-146.), and Milhous W K, Weatherly N F, Bowdre J H, Desjardins R E. (In vitro activities of and mechanisms of resistance to antifol antimalarial drugs. Antimicrob Agents Chemother. 1985 April; 27(4):525-30.). The system was limited to the assessment of the intrinsic activity against the erythrocytic asexual life cycle (blood schizontocides). Two Plasmodium falciparum clones from CDC/Indochina III (W-2) and CDC/Sierra Leone I (D-6) (Oduola A M, Weatherly N F, Bowdre J H, Desjardins R E. Plasmodium falciparum: cloning by single-erythrocyte micromanipulation and heterogeneity in vitro. Exp Parasitol. 1988 66(1):86-95.) were used for all assays. TM91C235, a multiple drug resistant isolate from Thailand, was used for the prescreening assay. W-2 is resistant to chloroquine, quinine, and pyrimethamine and susceptible to mefloquine. D-6 tends to be more resistant to mefloquine and susceptible to chloroquine, quinine, and pyrimethamine. All documents cited in this paragraph are incorporated by reference in their entirety.
(§2) All parasites were maintained in continuous long term cultures in RPMI-1640 medium supplemented with 6% washed human A positive (A+)(erythrocytes, 25 mM Hepes, […], and 10% heat inactivated A+human plasma or ALBUMAX® (lipid-rich bovine serum albumin; Invitrogen, Carlsbad, Calif.). All cultures and assays were conducted at 37° C. under an atmosphere of 5% CO2 and 5% O2, with a balance of N2.
The prescreening assay uses TM91C235 diluted at a 0.4% parasitemia in a 1% hematocrit in folic acid free and p-aminobenzoic acid free media RPMI-1640 and ALBUMAX®. One mg of the compound is typically dissolved in 100 μl of dimethyl sulfoxide (DMSO). The compound is further diluted in culture medium (FF) with ALBUMAX® for the first initial starting concentration. The rest of the stock drug solution was kept at −70° C. The isolate was preexposed, in duplicate, at three concentrations (25,000 ng/ml, 2,500 ng/ml, and 25 ng/ml) of the test compound for 48 hr in a 96-well microtiter plate (MTP) using the BIOMEK® 2000 automated laboratory workstation. Each MTP contains chloroquine as control to assess the relative activity of the compound and to monitor the response of TM91C235.
(§3) After the preincubation, [^3H]-hypoxanthine was added to each well of the MTP. (The assay relies on the incorporation of radiolabeled hypoxanthine by the parasites, which indicates reproduction, and inhibition of isotope incorporation was attributed to activity of known or candidate antimalarial drugs). After 72 hr of total incubation time, the MTP were frozen to lyse the erythrocytes and parasites. The parasite DNA was recovered by harvesting the lysate onto glass-fiber filter plates using a Packard FilterMate™ Cell Harvester. The radioactivity was counted on a Packard TopCount™ microplate scintillation counter. The results were recorded as counts per minutes (CPM) per well at each drug concentration divided by the arithmetic mean of the CPM from the three untreated infection parasite control wells.
The serial dilution assay was conducted using the same assay conditions and stock solution of the compound used for the preliminary screen, described above. Both the D-6 and the W-2 clones were used. The compounds were diluted two-fold over 11 different concentration ranges with a starting concentration that was based on the preliminary screen. […]

[2] = tested on: Plasmodium falciparum clone CDC/Sierra Leone I (D-6); test: In vitro antimalarial [3H]-hypoxanthine incorporation serial dilution assay, D6; type: cell-based; settings: Plasmodium falciparum, D6, 72 h, P. falciparum D6, 72 hours exposure; read-out: IC50 D6
From the text: as §1, §2, §3
The serial dilution assay was conducted using the same assay conditions and stock solution of the compound used for the preliminary screen, described above. Both the D-6 and the W-2 clones were used. The compounds were diluted two-fold over 11 different concentration ranges with a starting concentration that was based on the preliminary screen. For each drug, the concentration response profile was determined and 50% inhibitory concentrations (IC50) were determined by using a non-linear, logistic dose response analysis program. […] For each assay, the IC50 for each clone was determined against the known antimalarials chloroquine and mefloquine. These control values established the compound's relative parasite susceptibility profile compared to known antimalarials. […]
The in vitro potency of the compounds has been compared with that of azithromycin to better gauge compounds suitable for further testing. As described above, parasites were exposed for 72 hours. Data from the in vitro potency tests of azithromycin against the three parasite strains have been averaged, and these numbers have been used for identification of “active” macrolide compounds.

Compound	IC50 [1] [µg/mL]	IC50 [2] [µg/mL]
CC[C@H]1OC(=O)[C@H](C)[C@@H](O[C@H]2C[C@@](C)(OC)[C@@H](O)[C@H](C)O2)[C@H](C)[C@@H](O[C@@H]2O[C@H](C)C[C@H](N(C)C)[C@H]2O)[C@](C)(O)C[C@@H](C)CN(CCCNC(=O)NCC2CCCCC2)[C@H](C)[C@@H](O)[C@]1(C)O [Example 74]	0.133 (≈ 0.142 µM)	0.568 (≈ 0.609 µM)
CC[C@H]1OC(=O)[C@H](C)[C@@H](O[C@H]2C[C@@](C)(OC)[C@@H](O)[C@H](C)O2)[C@H](C)[C@@H](O[C@@H]2O[C@H](C)C[C@H](N(C)C)[C@H]2O)[C@](C)(O)C[C@@H](C)CN(CCCNC(=O)NC(C)(C)CC(C)(C)C)[C@H](C)[C@@H](O)[C@]1(C)O.O=CO [Example 78]	0.182	0.267
CCOC(=O)CCN(CCCN1C[C@H](C)C[C@@](C)(O)[C@H](O[C@@H]2O[C@H](C)C[C@H](N(C)C)[C@H]2O)[C@@H](C)[C@H](O[C@H]2C[C@@](C)(OC)[C@@H](O)[C@H](C)O2)[C@@H](C)C(=O)O[C@H](CC)[C@@](C)(O)[C@H](O)[C@H]1C)C(=S)NCCc1ccccc1 [Example 160, 9-Deoxo-9-dihydro-9a-{N′-[β-(ethoxycarbonyl)ethyl]-N′-[β-(phenylethyl)thiocarbamoyl]-γ-aminopropyl}-9a-aza-9a-homoerythromycin A]	0.0683 (≈ 0.0647 µM)	0.153 (≈ 0.145 µM)
CC[C@H]1OC(=O)[C@H](C)[C@@H](O[C@H]2C[C@@](C)(OC)[C@@H](O)[C@H](C)O2)[C@H](C)[C@@H](O[C@@H]2O[C@H](C)C[C@H](N(C)C)[C@H]2O)[C@](C)(O)C[C@@H](C)CN(CCCNC(=O)Nc2ccc(F)c(F)c2)[C@H](C)[C@@H](O)[C@]1(C)O.O=CO [Example 76]	0.126	0.298
CC[C@H]1OC(=O)[C@H](C)[C@@H](O)[C@H](C)[C@@H](O[C@@H]2O[C@H](C)C[C@H](N(C)C)[C@H]2O)[C@](C)(O)C[C@@H](C)CN(CCCN(CCC#N)C(=S)NCCc2ccccc2)[C@H](C)[C@@H](O)[C@]1(C)O [Example 170]	0.128 (≈ 0.151 µM)	0.543 (≈ 0.639 µM)
CCOC(=O)CCN(CCCN1C[C@H](C)C[C@@](C)(O)[C@H](O[C@@H]2O[C@H](C)C[C@H](N(C)C)[C@H]2O)[C@@H](C)[C@H](O[C@H]2C[C@@](C)(OC)[C@@H](O)[C@H](C)O2)[C@@H](C)C(=O)O[C@H](CC)[C@@](C)(O)[C@H](O)[C@H]1C)C(=S)NCCCc1ccccc1 [Example 161, 9-Deoxo-9-dihydro-9a-{N′-[β-(ethoxycarbonyl)ethyl]-N′-[γ-(phenylpropyl)thiocarbamoyl]-γ-aminopropyl}-9a-aza-9a-homoerythromycin A]	0.054 (≈ 0.0505 µM)	0.142 (≈ 0.132 µM)
CC[C@H]1OC(=O)[C@H](C)[C@@H](O[C@H]2C[C@@](C)(OC)[C@@H](O)[C@H](C)O2)[C@H](C)[C@@H](O[C@@H]2O[C@H](C)C[C@H](N(C)C)[C@H]2O)[C@](C)(O)C[C@@H](C)CN(CCCNC(=O)Nc2cccc(SC)c2)[C@H](C)[C@@H](O)[C@]1(C)O [Example 71]	0.131 (≈ 0.137 µM)	0.318 (≈ 0.332 µM)
CC[C@H]1OC(=O)[C@H](C)[C@@H](O[C@H]2C[C@@](C)(OC)[C@@H](O)[C@H](C)O2)[C@H](C)[C@@H](O[C@@H]2O[C@H](C)C[C@H](N(C)C)[C@H]2O)[C@](C)(O)C[C@@H](C)CN(CCCNC(=S)NC2CCCCCCCCCCC2)[C@H](C)[C@@H](O)[C@]1(C)O.O=CO [Example 116]	0.149	0.281
CC[C@H]1OC(=O)[C@H](C)[C@@H](O[C@H]2C[C@@](C)(OC)[C@@H](O)[C@H](C)O2)[C@H](C)[C@@H](O[C@@H]2O[C@H](C)C[C@H](N(C)C)[C@H]2O)[C@](C)(O)C[C@@H](C)CN(CCCNC(=S)Nc2ccc(/N=N/c3ccccc3)cc2)[C@H](C)[C@@H](O)[C@]1(C)O [Example 118]	0.0993 (≈ 0.0963 µM)	0.111 (≈ 0.107 µM)

The next lines start with the values.

IC50 [1] [µg/mL]	IC50 [2] [µg/mL]	Compound
0.172	0.269	CC[C@H]1OC(=O)[C@H](C)[C@@H](O[C@H]2C[C@@](C)(OC)[C@@H](O)[C@H](C)O2)[C@H](C)[C@@H](O[C@@H]2O[C@H](C)C[C@H](N(C)C)[C@H]2O)[C@](C)(O)C[C@@H](C)CN(CCCNC(=S)Nc2ccc(OCc3ccccc3)cc2)[C@H](C)[C@@H](O)[C@]1(C)O.O=CO [Example 115]
0.229	0.479	CC[C@H]1OC(=O)[C@H](C)[C@@H](O[C@H]2C[C@@](C)(OC)[C@@H](O)[C@H](C)O2)[C@H](C)[C@@H](O[C@@H]2O[C@H](C)C[C@H](N(C)C)[C@H]2O)[C@](C)(O)C[C@@H](C)CN(CCCNC(=O)Nc2ccc(C)cc2C)[C@H](C)[C@@H](O)[C@]1(C)O.O=CO [Example 75]
0.422 (≈ 0.411 µM)	0.665 (≈ 0.648 µM)	CC[C@H]1OC(=O)[C@H](C)[C@@H](O[C@H]2C[C@@](C)(OC)[C@@H](O)[C@H](C)O2)[C@H](C)[C@@H](O[C@@H]2O[C@H](C)C[C@H](N(C)C)[C@H]2O)[C@](C)(O)C[C@@H](C)CN(CCCNC(=O)Nc2cc(C(=O)OC)cc(C(=O)OC)c2)[C@H](C)[C@@H](O)[C@]1(C)O [Example 72]
0.0896	0.186	CC[C@H]1OC(=O)[C@H](C)[C@@H](O[C@H]2C[C@@](C)(OC)[C@@H](O)[C@H](C)O2)[C@H](C)[C@@H](O[C@@H]2O[C@H](C)C[C@H](N(C)C)[C@H]2O)[C@](C)(O)C[C@@H](C)CN(CCCNC(=O)Nc2ccc(Cl)cc2)[C@H](C)[C@@H](O)[C@]1(C)O.O=CO [Example 77]
0.223	0.329	CC[C@H]1OC(=O)[C@H](C)[C@@H](O[C@H]2C[C@@](C)(OC)[C@@H](O)[C@H](C)O2)[C@H](C)[C@@H](O[C@@H]2O[C@H](C)C[C@H](N(C)C)[C@H]2O)[C@](C)(O)C[C@@H](C)CN(CCCNC(=S)NCc2ccc3c(c2)CCC3)[C@H](C)[C@@H](O)[C@]1(C)O.O=CO [Example 117]
0.0572 (≈ 0.055 µM)	0.127 (≈ 0.122 µM)	CC[C@H]1OC(=O)[C@H](C)[C@@H](O[C@H]2C[C@@](C)(OC)[C@@H](O)[C@H](C)O2)[C@H](C)[C@@H](O[C@@H]2O[C@H](C)C[C@H](N(C)C)[C@H]2O)[C@](C)(O)C[C@@H](C)CN(CCCN(CCC(N)=O)C(=S)NCCCc2ccccc2)[C@H](C)[C@@H](O)[C@]1(C)O [Example 167, 9-Deoxo-9-dihydro-9a-{N′-(β-amidoethyl)-N′-[γ-(phenylpropyl)thiocarbamoyl]-γ-aminopropyl}-9a-aza-9a-homoerythromycin A]
0.0693 (≈ 0.0665 µM)	0.104 (≈ 0.1 µM)	CCOC(=O)CCN(CCCN1C[C@H](C)C[C@@](C)(O)[C@H](O[C@@H]2O[C@H](C)C[C@H](N(C)C)[C@H]2O)[C@@H](C)[C@H](O[C@H]2C[C@@](C)(OC)[C@@H](O)[C@H](C)O2)[C@@H](C)C(=O)O[C@H](CC)[C@@](C)(O)[C@H](O)[C@H]1C)C(=S)NCc1ccccc1 [Example 162, 9-Deoxo-9-dihydro-9a-{N′-[β-(ethoxycarbonyl)ethyl]-N′-benzylthiocarbamoyl-γ-aminopropyl]-9a-aza-9a-homoerythromycin A]
0.128 (≈ 0.139 µM)	0.305 (≈ 0.33 µM)	CC[C@H]1OC(=O)[C@H](C)[C@@H](O[C@H]2C[C@@](C)(OC)[C@@H](O)[C@H](C)O2)[C@H](C)[C@@H](O[C@@H]2O[C@H](C)C[C@H](N(C)C)[C@H]2O)[C@](C)(O)C[C@@H](C)CN(CCCNC(=O)Nc2ccc(C)cc2)[C@H](C)[C@@H](O)[C@]1(C)O [Example 73]
